Results taken from patent US11911349B2, “Rapidly improving vascular conditions by administering vitamin K” (NATTOPHARMA AS, priority 2018, dated 2024).

Experiments:
ApoE/LDLR−/− mice [1] = experiment: Example 2: nitrite and nitrate concentration in plasma (HPLC, ENO-20); type: in vivo; settings: two months
Protocol: Blood samples were collected from heart into test tubes containing additional anticoagulant and centrifuged at 1000 g for 10 min at 4° C. The samples were used for HPLC measurement of nitrate (NO3−) and nitrite (NO2−) concentrations in plasma by an ENO-20 NOx Analyzer.

ApoE/LDLR−/− mice [2] = experiment: Example 2: histological assessment of plaque size, composition and vessel wall area in BCA; type: in vivo; settings: two months
Description: For the determination of atherosclerotic plaque area and composition BCA was dissected, fixed in 4% buffered formalin and embedded in paraffin. 5 μm-thick serial sections of BCA were collected from proximal, middle and distal parts of artery. Originally developed staining with Unna's orcein combined with Martius, Scarlet and Blue trichrome (OMSB), was applied on every tenth section (50 μm interval between each section) for visualization of collagen, elastin, fibrin, red blood cells and vascular smooth muscle cells within atherosclerotic plaque. The areas of particular components of atherosclerotic plaque as well as artery lumen and wall were determined after Columbus-based software processing (FIG. 1B) using a previously developed algorithm [Gajda M, Jasztal A, Banasik T, Jasek-Gajda E, Chlopicki S. Combined orcein and martius scarlet blue (OMSB) staining for qualitative and quantitative analyses of atherosclerotic plaques in brachiocephalic arteries in apoE/LDLR−/− mice. Histochem Cell Biol 2017. doi:10.1007/s00418-017-1538-8.].

ApoE/LDLR−/− mice [3] = experiment: Example 3: MRI assessment of FMD in femoral artery and Ach response in abdominal aorta, young mice; type: in vivo; settings: for improvement in endothelial function compared with low dose (0.05 mg/kg) for 4 weeks: four weeks
Protocol: In a first part of the study, the effects of low doses (0.05 mg/kg b.w./day) as well as higher doses (0.5 mg/kg b.w./day and 5 mg/kg b.w./day) of vitamin K2 (MK-7, referred to in this example as simply “vitamin K2,” unless noted otherwise) on endothelial function in ApoE/LDLR−/−mice without well-established atherosclerotic plaque and with early phase of endothelial dysfunction were assessed.
Mice were randomly assigned to one of four experimental groups: control (untreated group) and three groups treated with vitamin K2 at a dose of 0.05, 0.5, and 5 mg/kg b.w./day, respectively. End-point measurements were performed at the age of 10-16 weeks.
(§1) Magnetic resonance imaging (MRI) experiments were performed using a 9.4T scanner (BioSpec 94/20 USR, Bruker, Germany) located in the Department of Magnetic Resonance Imaging, Institute of Nuclear Physics, Polish Academy of Sciences in Krakow. During the experiment, mice were anaesthetized using isoflurane (Aerrane, Baxter Sp. z o. o., Poland, 1.7 vol %) in an oxygen and air (1:2) mixture and imaged in the supine position. Activity of the heart, respiration, and body temperature (maintained at 37° C. using circulating warm water) were monitored using a Monitoring and Gating System (SA Inc., Stony Brook, N.Y., USA).
Endothelial function was assessed based on vascular responses to acetylcholine (Ach) administration in brachiocephalic artery (BCA), left common carotid artery (LCA) (FIGS. 6 A and B) and abdominal aorta (AA) (FIG. 6C) as well as to responses to increase in flow (flow-mediated dilatation, FMD) in femoral artery (FA) (FIG. 6D) as described in Bar A, Skorka T, Jasinski K, Sternak M, Bartel Ż, Tyrankiewicz U, et al. Retrospectively-gated MRI for in vivo assessment of endothelium-dependent vasodilatation and endothelial permeability in murine models of endothelial dysfunction. NMR Biomed 2016; 29(8):1088; Sternak M, Bar A, Adamski M G, Mohaissen T, Marczyk B, Kieronska A, et al. The Deletion of Endothelial Sodium Channel α (αENaC) Impairs Endothelium-Dependent Vasodilation and Endothelial Barrier Integrity in Endotoxemia in Vivo. Front Pharmacol 2018; 9:178. doi:10.3389/fphar.2018.00178; and Bar A, Olkowicz M, Tyrankiewicz U, Kus E, Jasinski K, Smolenski R T, et al. Functional and Biochemical Endothelial Profiling In Vivo in a Murine Model of Endothelial Dysfunction; Comparison of Effects of 1-Methylnicotinamide and Angiotensin-converting Enzyme Inhibitor. Front Pharmacol 2017; 8:183. doi:10.3389/fphar.2017.00183).
Vasomotor response was examined by comparing two time-resolved 3D images of the vessels prior to and 25 minutes after intraperitoneal Ach administration (Sigma-Aldrich, Poznan Poland: 50 μl, 16.6 mg/kg), as well as prior to and 5 minutes after vessel occlusion. Images were acquired using the cine IntraGate™ FLASH 3D sequence, reconstructed with the IntraGate 1.2.b.2 macro (Bruker). End-diastolic volumes of vessels were analyzed using ImageJ software 1.46r (NIH Bethesda, Md., USA) and scripts written in Matlab (MathWorks, Natick, Mass., USA). Imaging parameters included the following: repetition time (TR)—6.4 ms, echo time (TE)—1.4 ms, field of view (FOV)—30×30×5 mm3, matrix size—256×256×30, flip angle (FA)—30°, and number of accumulations (NA)—15, reconstructed to 7 cardiac frames. Total scan time was 10 minutes.

ApoE/LDLR−/− mice [4] = experiment: Example 3: MRI assessment of Ach response in BCA and LCA, older mice with advanced atherosclerosis; type: in vivo; settings: low dose 0.03 mg/kg b.w/day, eight weeks, 24-week-old mice; listed as vitamin K2, 0.03 mg/kg/day
Protocol: In a second part of the study, the effects of a low dose (0.03 mg/kg b.w./day) as well as a high doses (10 mg/kg b.w./day) of vitamin K2 (MK-7) on endothelial function in ApoE/LDLR−/−mice with pre-established atherosclerosis were assessed.
as §1, with “USA). […]” for “USA).”
Vasomotor response was examined by comparing two time-resolved 3D images of the vessels prior to and 25 minutes after intraperitoneal Ach administration (Sigma-Aldrich, Poznan Poland: 50 μl, 16.6 mg/kg), as well as prior to and 5 minutes after vessel occlusion. […] End-diastolic volumes of vessels were analyzed using ImageJ software 1.46r (NIH Bethesda, Md., USA) and scripts written in Matlab (MathWorks, Natick, Mass., USA). […]

ApoE/LDLR−/− mice [5] = experiment: Example 3: nitrite and nitrate concentration in plasma, older mice; type: in vivo; settings: eight weeks
[6] = mouse, in vivo

## CC(C)=CCC/C(C)=C/CC/C(C)=C/CC/C(C)=C/CC/C(C)=C/CC/C(C)=C/CC/C(C)=C/CC1=C(C)C(=O)c2ccccc2C1=O [MK-7, menaquinone-7]
ApoE/LDLR−/− mice [1]; 0.03 mg/kg b.w./day
  concentration of NO3− in plasma: did not change significantly
ApoE/LDLR−/− mice [1]; 10 mg/kg b.w./day
  concentration of NO3− in plasma: did not change significantly
ApoE/LDLR−/− mice [2]; high dose 10 mg/kg b.w./day
  content of collagen in plaque, treated vs untreated: lack of differences
  decrease in lipid core expressed as percent of plaque: about 17%
  decrease in vessel wall area (VWA) of BCA: about 5%
  effect on plaque size: did not result in a beneficial effect
  lumen area expressed as percent of IWA: did not change
  plaque area expressed as percent of IWA: did not change
ApoE/LDLR−/− mice [2]; low dose 0.03 mg/kg b.w./day
  content of collagen in plaque, treated vs untreated: lack of differences
  decrease in lipid core expressed as percent of plaque: about 17%
  decrease in vessel wall area (VWA) of BCA: about 5%
  effect on plaque size: did not result in a beneficial effect
  lumen area expressed as percent of IWA: did not change
  plaque area expressed as percent of IWA: did not change
ApoE/LDLR−/− mice [2]; lower dose 0.03 mg/kg b.w./day, not visible for entire vessel
  internal wall area (IWA): decreased only in the middle part of the vessel
ApoE/LDLR−/− mice [3]; 0.05 mg/kg b.w./day, eight weeks, untreated −16.22%, p=0.05
  Ach response in AA, volume changes: −0.65%
ApoE/LDLR−/− mice [3]; 0.05 mg/kg b.w./day, two weeks
  magnitude of endothelium-dependent response to acetylcholine in abdominal aorta (ACH-AA): lack of changes
  magnitude of vasodilatation in response to increase in flow in femoral artery (FMD-FA): lack of changes
ApoE/LDLR−/− mice [3]; 0.5 mg/kg b.w./day
  improvement in endothelial function compared with low dose (0.05 mg/kg) for 4 weeks: not superior
ApoE/LDLR−/− mice [3]; 5 mg/kg b.w./day
  improvement in endothelial function compared with low dose (0.05 mg/kg) for 4 weeks: not superior
ApoE/LDLR−/− mice [3]; 5 mg/kg b.w./day, two weeks, untreated −7.72%, p=0.1
  Ach response in AA, volume changes: 0.16%
ApoE/LDLR−/− mice [4]
  volume change of LCA after Ach injection: ~−3%
ApoE/LDLR−/− mice [5]; 0.03 mg/kg b.w./day
  concentration of NO3− in plasma: did not change significantly
ApoE/LDLR−/− mice [5]; 10 mg/kg b.w./day
  concentration of NO3− in plasma: did not change significantly
ApoE/LDLR−/− mice [5]; high dose 10 mg/kg b.w./day
  increase in NO2− concentration in plasma: ~42%
ApoE/LDLR−/− mice [5]; low dose 0.03 mg/kg b.w./day
  increase in NO2− concentration in plasma: about 58%
[6]
  K1 2,3-epoxide plasma concentration: tent to decrease
  vitamin K1 plasma concentration: tent to decrease
[6]; 5 mg/kg/day
  concentration of MK4 2,3-epoxide in plasma: maintained at similar level
  plasma concentration of K2 (MK-7): dose-dependent increase
  plasma concentration of MK-4: dose-dependent increase
